Numbers after ± are expanded uncertainties.
Settings: Gas, Vibrating wire viscometry

FS(F)(F)(F)(F)F [sulfur hexafluoride]
Settings	viscosity [mPa·s]
300 K, 26.36 kPa	0.01529 ± 0.00089
300 K, 50.94 kPa	0.01531 ± 0.00089
300 K, 73.62 kPa	0.01532 ± 0.00089
300 K, 105.89 kPa	0.01532 ± 0.00089
300 K, 125.7 kPa	0.01533 ± 0.00089
300 K, 152.62 kPa	0.01533 ± 0.00089
300 K, 177.62 kPa	0.01533 ± 0.00089
300 K, 195.25 kPa	0.01534 ± 0.00089
300 K, 227.52 kPa	0.01534 ± 0.00089
300 K, 251.51 kPa	0.01535 ± 0.00089
300 K, 278.58 kPa	0.01535 ± 0.00089
300 K, 301.45 kPa	0.01535 ± 0.00089
300 K, 327.3 kPa	0.01536 ± 0.00089
300 K, 353.41 kPa	0.01536 ± 0.00089
300 K, 378.55 kPa	0.01537 ± 0.00089
300 K, 401.57 kPa	0.01537 ± 0.00089
300 K, 425.72 kPa	0.01538 ± 0.00089
300 K, 444.52 kPa	0.01538 ± 0.00089
300 K, 471.71 kPa	0.01539 ± 0.00089
300 K, 491.53 kPa	0.0154 ± 0.00089
300 K, 538.31 kPa	0.01541 ± 0.00089
300 K, 565.24 kPa	0.01542 ± 0.00089
300 K, 597.98 kPa	0.01543 ± 0.00089
300 K, 634.58 kPa	0.01544 ± 0.00089
300 K, 665.1 kPa	0.01545 ± 0.00089
300 K, 700.96 kPa	0.01546 ± 0.00089
300 K, 731.45 kPa	0.01547 ± 0.00089
300 K, 763.98 kPa	0.01548 ± 0.00089
300 K, 800.2 kPa	0.01549 ± 0.00089
300 K, 835.89 kPa	0.01551 ± 0.00089
300 K, 869.95 kPa	0.01553 ± 0.00089
300 K, 898.41 kPa	0.01554 ± 0.00089
300 K, 930.75 kPa	0.01556 ± 0.00089
300 K, 968.74 kPa	0.01558 ± 0.00089
300 K, 997.76 kPa	0.01559 ± 0.00089
300 K, 1036.4 kPa	0.01561 ± 0.0009
300 K, 1090.2 kPa	0.01565 ± 0.0009
300 K, 1140.1 kPa	0.01568 ± 0.0009
300 K, 1181.5 kPa	0.0157 ± 0.0009
300 K, 1223.6 kPa	0.01574 ± 0.0009
300 K, 1280.6 kPa	0.01578 ± 0.0009
300 K, 1333.3 kPa	0.01582 ± 0.0009
300 K, 1380.9 kPa	0.01586 ± 0.0009
300 K, 1417.9 kPa	0.01589 ± 0.0009
300 K, 1493.3 kPa	0.01596 ± 0.0009
300 K, 1537.7 kPa	0.016 ± 0.0009
300 K, 1594.6 kPa	0.01606 ± 0.0009
300 K, 1637.3 kPa	0.01611 ± 0.0009
300 K, 1680.6 kPa	0.01616 ± 0.0009
300 K, 1735.3 kPa	0.01622 ± 0.0009
300 K, 1784.4 kPa	0.01629 ± 0.0009
300 K, 1826.5 kPa	0.01635 ± 0.0009
300 K, 1865.1 kPa	0.01641 ± 0.0009
300 K, 1927.3 kPa	0.0165 ± 0.0009
300 K, 1980 kPa	0.01659 ± 0.0009
300 K, 2039.3 kPa	0.0167 ± 0.0009
316 K, 112.75 kPa	0.01605 ± 0.0009
316 K, 143.54 kPa	0.01605 ± 0.0009
316 K, 174.6 kPa	0.01606 ± 0.0009
316 K, 197.59 kPa	0.01606 ± 0.0009
316 K, 218.05 kPa	0.01607 ± 0.0009
316 K, 245.03 kPa	0.01607 ± 0.0009
316 K, 262.84 kPa	0.01607 ± 0.0009
316 K, 287.46 kPa	0.01608 ± 0.0009
316 K, 307.35 kPa	0.01608 ± 0.0009
316 K, 332.06 kPa	0.01609 ± 0.0009
316 K, 357.7 kPa	0.0161 ± 0.0009
316 K, 383.76 kPa	0.0161 ± 0.0009
316 K, 402.43 kPa	0.01611 ± 0.0009
316 K, 428.01 kPa	0.01611 ± 0.0009
316 K, 468.39 kPa	0.01613 ± 0.0009
316 K, 490.91 kPa	0.01613 ± 0.0009
316 K, 519.48 kPa	0.01614 ± 0.0009
316 K, 548.34 kPa	0.01615 ± 0.0009
316 K, 585.01 kPa	0.01616 ± 0.0009
316 K, 614.48 kPa	0.01617 ± 0.0009
316 K, 650.85 kPa	0.01618 ± 0.0009
316 K, 685.07 kPa	0.0162 ± 0.0009
316 K, 712.63 kPa	0.0162 ± 0.0009
316 K, 749.05 kPa	0.01622 ± 0.0009
316 K, 780.4 kPa	0.01623 ± 0.0009
316 K, 810.74 kPa	0.01624 ± 0.0009
316 K, 843.2 kPa	0.01626 ± 0.0009
316 K, 882.81 kPa	0.01628 ± 0.0009
316 K, 913.9 kPa	0.01629 ± 0.0009
316 K, 955.92 kPa	0.01631 ± 0.0009
316 K, 994.72 kPa	0.01634 ± 0.0009
316 K, 1031.1 kPa	0.01635 ± 0.0009
316 K, 1084.1 kPa	0.01638 ± 0.0009
316 K, 1120.4 kPa	0.01641 ± 0.0009
316 K, 1178.3 kPa	0.01644 ± 0.0009
316 K, 1215.2 kPa	0.01646 ± 0.0009
316 K, 1257.3 kPa	0.0165 ± 0.0009
316 K, 1314.3 kPa	0.01654 ± 0.0009
316 K, 1374.4 kPa	0.01658 ± 0.0009
316 K, 1422.9 kPa	0.01662 ± 0.0009
316 K, 1465.6 kPa	0.01665 ± 0.0009
316 K, 1530.4 kPa	0.01671 ± 0.0009
316 K, 1572.7 kPa	0.01674 ± 0.0009
316 K, 1609.8 kPa	0.01678 ± 0.0009
316 K, 1667.2 kPa	0.01684 ± 0.0009
316 K, 1724.2 kPa	0.01689 ± 0.0009
316 K, 1772.5 kPa	0.01694 ± 0.00091
316 K, 1821.1 kPa	0.017 ± 0.00091
316 K, 1860.3 kPa	0.01704 ± 0.00091
316 K, 1922.7 kPa	0.01711 ± 0.00091
316 K, 1988.5 kPa	0.0172 ± 0.00091
316 K, 2021.6 kPa	0.01725 ± 0.00091
316 K, 2087.4 kPa	0.01733 ± 0.00091
316 K, 2155.2 kPa	0.01744 ± 0.00091
316 K, 2223.8 kPa	0.01755 ± 0.00091
316 K, 2273.2 kPa	0.01763 ± 0.00091
316 K, 2319.1 kPa	0.01771 ± 0.00091
316 K, 2375.8 kPa	0.01781 ± 0.00091
316 K, 2448.5 kPa	0.01796 ± 0.00091
316 K, 2510 kPa	0.01809 ± 0.00092
316 K, 2587.2 kPa	0.01826 ± 0.00092
316 K, 2658.2 kPa	0.01844 ± 0.00092
316 K, 2724.3 kPa	0.01862 ± 0.00092
316 K, 2792.7 kPa	0.01883 ± 0.00092
316 K, 2860.9 kPa	0.01906 ± 0.00092
316 K, 2916.5 kPa	0.01925 ± 0.00092
316 K, 2981.1 kPa	0.0195 ± 0.00093
316 K, 3007.9 kPa	0.01963 ± 0.00093
316 K, 3070 kPa	0.01992 ± 0.00093
316 K, 3135.2 kPa	0.02025 ± 0.00093
321 K, 77.46 kPa	0.01627 ± 0.0009
321 K, 97.02 kPa	0.01627 ± 0.0009
321 K, 114.16 kPa	0.01627 ± 0.0009
321 K, 146.57 kPa	0.01628 ± 0.0009
321 K, 169.96 kPa	0.01629 ± 0.0009
321 K, 205.62 kPa	0.01629 ± 0.0009
321 K, 239.58 kPa	0.0163 ± 0.0009
321 K, 264.1 kPa	0.0163 ± 0.0009
321 K, 293.39 kPa	0.01631 ± 0.0009
321 K, 339.65 kPa	0.01632 ± 0.0009
321 K, 374.89 kPa	0.01633 ± 0.0009
321 K, 400.93 kPa	0.01634 ± 0.0009
321 K, 428.98 kPa	0.01634 ± 0.0009
321 K, 457.31 kPa	0.01635 ± 0.0009
321 K, 488.99 kPa	0.01636 ± 0.0009
321 K, 523.86 kPa	0.01637 ± 0.0009
321 K, 563.16 kPa	0.01638 ± 0.0009
321 K, 592.18 kPa	0.01639 ± 0.0009
321 K, 633.22 kPa	0.01641 ± 0.0009
321 K, 681.18 kPa	0.01643 ± 0.0009
321 K, 732.46 kPa	0.01644 ± 0.0009
321 K, 790.88 kPa	0.01647 ± 0.0009
321 K, 823.55 kPa	0.01648 ± 0.0009
321 K, 857.52 kPa	0.0165 ± 0.0009
321 K, 896.2 kPa	0.01652 ± 0.0009
321 K, 934.23 kPa	0.01654 ± 0.0009
321 K, 969 kPa	0.01655 ± 0.0009
321 K, 1031.4 kPa	0.01658 ± 0.0009
321 K, 1089.4 kPa	0.01662 ± 0.0009
321 K, 1125 kPa	0.01664 ± 0.0009
321 K, 1178.7 kPa	0.01667 ± 0.0009
321 K, 1223.2 kPa	0.0167 ± 0.0009
321 K, 1282.4 kPa	0.01674 ± 0.0009
321 K, 1340 kPa	0.01678 ± 0.0009
321 K, 1386.2 kPa	0.01682 ± 0.0009
321 K, 1431.8 kPa	0.01686 ± 0.0009
321 K, 1483.3 kPa	0.01689 ± 0.0009
321 K, 1538.9 kPa	0.01694 ± 0.00091
321 K, 1647 kPa	0.01703 ± 0.00091
321 K, 1693.1 kPa	0.01708 ± 0.00091
321 K, 1744.5 kPa	0.01713 ± 0.00091
321 K, 1788.6 kPa	0.01718 ± 0.00091
321 K, 1847.4 kPa	0.01724 ± 0.00091
